According to patent publication US9353150B2, “Substituted pyrazino[1′,2′:1 ,5]pyrrolo[2,3-b]-indole-1,4-diones for cancer treatment” (Massachusetts Institute of Technology, priority 2012, dated 2016):
Entries after “also recorded” stand apart in the source; their conditions may differ. Like-named read-outs stand apart in the source and are kept apart here.

How the values were obtained:
[1] = test system: HeLa (cervical carcinoma); assay: 72-hour IC50 determination for adherent cells using sulforhodamine B (SRB); assay type: cell-based, human
Experimental: (§1) Certain synthesized compounds were screened for their ability to induce death in two human cancer cell lines: U-937 (leukemic monocyte lymphoma) and HeLa (cervical cancer).
(§2) Cells were grown in media supplemented with fetal bovine serum (FBS) and antibiotics ([…]). Specifically, experiments were performed using the following cell lines and media compositions: U-937, HeLa, H460, and 786-O (RPMI-1640+10% FBS), and MCF7 (EMEM+10% FBS). Cells were incubated at 37° C. in a 5% CO2, 95% humidity atmosphere.
(§3) Adherent cells (HeLa, H460, 786-O, and MCF7) were added into 96-well plates (5,000 cells/well for HeLa cell line; 2,000 cells/well for H460, 786-O, and MCF7 cell lines) in 100 μL media and were allowed to adhere for 2-3 hours. Compounds were solubilized in DMSO as 100× stocks, added directly to the cells (100 μL final volume), and tested over a range of concentrations in triplicate (1% DMSO final) on a half-log scale. Concentrations tested ranged from […] to 10 μM, depending on the potency of the compound. DMSO and cell-free wells served as the live and dead control, respectively. After 72 hours of continuous exposure, the plates were evaluated using the SRB colorimetric assay as described previously (Vichai, V.; Kirtikara, K. Nature Prot. 2006, 1, 1112). Briefly, media was removed from the plate, and cells were fixed by the addition of 100 μL cold 10% trichloroacetic acid in water. After incubating at 4° C. for an hour, the plates were washed in water and allowed to dry. Sulforhodamine B was added as a 0.057% solution in 1% acetic acid (100 μL), and the plates were incubated at room temperature for 30 minutes, washed in 1% acetic acid, and allowed to dry. The dye was solubilized by adding 10 mM Tris base solution (pH 10.5, 200 μL) and incubating at room temperature for 30 minutes. Plates were read at λ=510 nm. IC50 values were determined from three or more independent experiments using TableCurve (San Jose, Calif.).

786-O (renal carcinoma) = assay: as above; assay type: cell-based, human; conditions: error is standard deviation of the mean, n ≧ 3, read-out: 786-O, 72-hour IC50 (Table E1-2)
Experimental: (§4) Certain provided compounds were tested in culture against a panel of three supplementary human cancer cell lines representing three additional tumor histologies (H460, lung carcinoma; 786-O, renal carcinoma; MCF-7, breast carcinoma). As shown in Table E1-2, the ETPs retain their potency across the cell lines. In some embodiments, a provided compound is active in all cell lines. In some embodiments, a provide compound can be used to selectively target certain cells and/or cancers. […] Without the intention to be limited, Applicant notes that certain cell lines could be more sensitive to provided compounds; for example, U-937 and HeLa are slightly more sensitive to the ETPs than the other three cell lines.
as §2, §3

H460 (lung carcinoma) = assay: as above; assay type: cell-based, human; conditions: error is standard deviation of the mean, n ≧ 3, read-out: H460, 72-hour IC50 (Table E1-2)
Experimental: as §4, §2, §3

MCF-7 (breast carcinoma) = assay: as above; assay type: cell-based, human; conditions: error is standard deviation of the mean, n ≧ 3, read-out: MCF-7, 72-hour IC50 (Table E1-2)
Experimental: as §4, §2, §3

human cancer cell lines = assay: Anticancer activity in human cancer cell lines, not tied to one cell line; assay type: cell-based; conditions: for change in activity across cell lines: five cell lines of Table E1-2; for anticancer activity, in words: human cancer cell lines, 72-hour exposure
Experimental: as §1, §4, §3
(§5) In a 96-well plate, compounds were pre-added as DMSO stocks in triplicate to achieve a final concentration of 1%. DMSO and cell-free wells served as the live and dead control, respectively. U-937 (5,000 cells/well) cells were distributed in 100 μL media to the compound-containing plate. After 72 hours, cell viability was assessed by adding 20 μL of a PMS/MTS solution (Cory, A. H.; Owen, T. C.; Barltrop, J. A.; Cory, J. G. Cancer Commun. 1991, 3, 207) to each well, allowing the dye to develop at 37° C. until the live control had processed MTS, and reading the absorbance at λ=490 nm. IC50 values were determined from three or more independent experiments using TableCurve (San Jose, Calif.).

[2] = test system: U-937 (hystiocytic lymphoma); assay: 72-hour IC50 determination for non-adherent cells using MTS; assay type: cell-based, human
Experimental: as §1, §2, §5

[3] = Homo sapiens, HeLa, 72 h, read-out: HeLa, 72-hour IC50 (Table E1-1)
[4] = Homo sapiens, HeLa, 72 h, read-out: HeLa, 72-hour IC50 (Table E1-2)
[5] = Homo sapiens, HeLa, 72 h, read-out: IC50 (HeLa)
[6] = Homo sapiens, 786-0, 72-hour exposure
[7] = Homo sapiens, NCI-H460, 72-hour exposure
[8] = Homo sapiens, MCF7, 72-hour exposure
[9] = Homo sapiens, U-937, 72 h, read-out: IC50 (U-937)
[10] = Homo sapiens, U-937, 72 h, read-out: U-937, 72-hour IC50 (Table E1-1)
[11] = Homo sapiens, U-937, 72 h, read-out: U-937, 72-hour IC50 (Table E1-2)
[12] = 72-hour exposure, SRB, error is standard deviation of the mean, n ≧ 3, read-out: HeLa, 72-hour IC50 (Table E1-1)
[13] = 72-hour exposure, SRB, error is standard deviation of the mean, n ≧ 3, read-out: HeLa, 72-hour IC50 (Table E1-2)
[14] = 72-hour exposure, MTS, error is standard deviation of the mean, n ≧ 3, read-out: U-937, 72-hour IC50 (Table E1-1)
[15] = 72-hour exposure, MTS, error is standard deviation of the mean, n ≧ 3, read-out: U-937, 72-hour IC50 (Table E1-2)
[16] = Homo sapiens, HeLa, 72-hour exposure, SRB, error is standard deviation of the mean, n ≧ 3, read-out: HeLa, 72-hour IC50 (Table E1-1)
[17] = Homo sapiens, HeLa, 72-hour exposure, SRB, error is standard deviation of the mean, n ≧ 3, read-out: HeLa, 72-hour IC50 (Table E1-2)
[18] = Homo sapiens, U-937, 72-hour exposure, MTS, error is standard deviation of the mean, n ≧ 3, read-out: U-937, 72-hour IC50 (Table E1-1)
[19] = Homo sapiens, U-937, 72-hour exposure, MTS, error is standard deviation of the mean, n ≧ 3, read-out: U-937, 72-hour IC50 (Table E1-2)

SMILES | IC50 (786-O (renal carcinoma); [6]) | IC50 (H460 (lung carcinoma); [7]) | IC50 (MCF-7 (breast carcinoma); [8]) | IC50 [1, 12] | IC50 [1, 13] | IC50 (786-O (renal carcinoma); 72-hour exposure) | IC50 (H460 (lung carcinoma); 72-hour exposure) | IC50 (MCF-7 (breast carcinoma); 72-hour exposure) | anticancer activity, in words (human cancer cell lines) | IC50 [2, 14] | IC50 [2, 15] | further results
CN1C(=O)[C@@]23C[C@]4(c5cc[nH]c5)c5ccccc5N(S(=O)(=O)c5ccccc5)[C@@H]4N2C(=O)[C@@H]1SS3 [Compound 32, C3-(Pyrrol-3′-yl) epidithiodiketopiperazine] | 66 ± 23 nM | 31.8 ± 2.5 nM | 61 ± 11 nM | – | – | – | – | – | – | – | – | IC50 [1, 3]: 26.8 ± 4.8 nM; IC50 [1, 4]: 26.8 ± 4.8 nM; IC50 [1, 5]: 22 to 75 nM; change in activity across cell lines (human cancer cell lines): 4 fold; IC50 [2, 9]: 2.8 to 14.8 nM; IC50 [2, 10]: 14.8 ± 3.1 nM; IC50 [2, 11]: 14.8 ± 3.1 nM
CN1C(=O)[C@@]23C[C@]4(Br)c5ccccc5N(S(=O)(=O)c5ccccc5)[C@@H]4N2C(=O)[C@@H]1SS3 [Compound 30, C3-Bromo epidithiodiketopiperazines] | – | – | – | 44.9 ± 1.3 nM | 44.9 ± 1.3 nM | 162 ± 35 nM | 277 ± 44 nM | 152 ± 42 nM | intermediately good activity | 5 ± 1.3 nM | 5 ± 1.3 nM | –
CN1C(=O)C23CC4(c5c[nH]c6ccccc56)c5ccccc5N(S(=O)(=O)c5ccccc5)C4N2C(=O)C1(C)SC(=S)S3 (stereo not shown) [Compound 64, C3-(Indo-3′-v)dithiepanethiones] | – | – | – | 25.3 ± 2 nM | 25.3 ± 2 nM | 266 ± 85 nM | 222 ± 72 nM | 210 ± 73 nM | competent anticancer agents | 24 ± 12 nM | 24 ± 12 nM | –
CN1C(=O)[C@]23C[C@]4(F)c5ccccc5N(S(=O)(=O)c5ccccc5)[C@@H]4N2C(=O)[C@H]1SS3 [Compound 35, C3-Fluoro epidithiodiketopiperazines] | – | – | – | 56 ± 21 nM | 56 ± 21 nM | 64 ± 20 nM | 123 ± 50 nM | 93 ± 34 nM | intermediately good activity | 21.3 ± 8.7 nM | 21.3 ± 8.7 nM | –
CN1C(=O)[C@@]23C[C@]4([C@]56C[C@@]78SSSS[C@@](CO)(C(=O)N7[C@H]5Nc5ccccc56)N(C)C8=O)c5ccccc5N[C@@H]4N2C(=O)[C@]1(CO)SSSS3 [Compound 6, (+)-12,12′-dideoxychetracin A] | 16 ± 2.4 nM | 39.3 ± 41 nM | 22.5 ± 6 nM | – | – | – | – | – | active across the board | – | – | IC50 [1, 16]: 5.6 ± 1 nM; IC50 [1, 17]: 5.6 ± 1 nM; IC50 ([1]; Homo sapiens, HeLa, 72-hour exposure, read-out: IC50 (HeLa)): 5.6 to 6.9 nM; IC50 [2, 18]: 1.3 ± 0.5 nM; IC50 [2, 19]: 1.3 ± 0.5 nM; IC50 ([2]; Homo sapiens, U-937, 72-hour exposure, read-out: IC50 (U-937)): 0.75 to 1.3 nM
CN1C(=O)[C@@]23C[C@]4([C@]56C[C@@]78SS[C@@](CO)(C(=O)N7[C@H]5Nc5ccccc56)N(C)C8=O)c5ccccc5N[C@@H]4N2C(=O)[C@]1(CO)SS3 [Compound 4, (+)-chaetocin A] | – | – | – | 6.9 ± 2 nM | 6.9 ± 2 nM | 26.5 ± 7.7 nM | 53 ± 23 nM | 50 ± 16 nM | active across the board | 0.81 ± 0.15 nM | 0.81 ± 0.15 nM | –
COc1ccc([C@]23C[C@@]45SS[C@@H](C(=O)N4[C@H]2N(S(=O)(=O)c2ccccc2)c2ccccc23)N(C)C5=O)cc1 [Compound 33, C3-(p-Methoxyphenyl)epidithiodiketopiperazine] | 83 ± 18 nM | 46.7 ± 5.3 nM | 63 ± 16 nM | – | – | – | – | – | – | – | – | IC50 [1, 3]: 22.2 ± 10.9 nM; IC50 [1, 4]: 22.2 ± 10.9 nM; IC50 [1, 5]: 22 to 75 nM; change in activity across cell lines (human cancer cell lines): 4 fold; IC50 [2, 9]: 2.8 to 14.8 nM; IC50 [2, 10]: 5 ± 2.1 nM; IC50 [2, 11]: 5 ± 2.1 nM
CN1C(=O)C23CC4(C56CC78SC(=S)S[C@](C)(C(=O)N7[C@H]5N(S(=O)(=O)c5ccccc5)c5ccccc56)N(C)C8=O)c5ccccc5N(S(=O)(=O)c5ccccc5)[C@@H]4N2C(=O)[C@@]1(C)SC(=S)S3 (stereo partly shown) [Compound 18, Dimeric bisdithiepanethione] | 14.9 ± 4.4 nM | 18.5 ± 2.7 nM | 10.7 ± 8.1 nM | – | – | – | – | – | competent anticancer agents; also recorded: active across the board | – | – | IC50 [1, 16]: 1.1 ± 0.8 nM; IC50 [1, 17]: 1.1 ± 0.8 nM; IC50 [2, 18]: 2.9 ± 2.1 nM; IC50 [2, 19]: 2.9 ± 2.1 nM
